Test results taken from patent US20060161007A1, “Oxazole and thiazole combinatorial libraries” (priority 1999, published 2006).

Assays:
DNA = DNA binding activity by capillary zone electrophoresis
Protocol: The DNA binding activity of the tetrapeptide amides in the first library was measured using capillary zone electrophoresis.

[1] = solubility of building block 3 in solvents; format: physicochemical
Protocol: 2-(2′-Boc-aminomethyl-oxazole-4′-yl)-thiazole-4-carboxylic acid (37) (0.65 g, 2 mmol) was added in 30 ml of 40% TFA in DCM and stirred for 60 min. The solvent was removed by concentration under reduced pressure. The residue was diluted with 10 ml of water, which was neutralized to pH 7 by adding 1 M sodium hydroxide (aqueous solution), followed by addition of solid sodium carbonate (0.42 g, 4 mmole) and a solution of Fmoc-OSu (1 g, 3 mmole) in 60 ml of THF. After stirring for 2 hours (white solid precipitated), the reaction mixture was concentrated under reduced pressure to remove the THF, and diluted with 30 ml of water. The aqueous solution was washed with DCM (50 ml×3), and acidified to pH 3 by adding 10% potassium hydrogensulfate (aqueous solution). The white solid which formed was collected by filtration. This product was insoluble in DCM, ether, EtOAc, THF, methanol, ethanol, acetonitrile, HFIP, DMF, NMP and water. It was soluble in DMSO or the solutions containing more than 50% DMSO in DMF or NMP. The product was recrystallized in DMSO-water to give a fine white powder (0.69 g). Yield: 77%. RP-HPLC analysis: retention […]=14.18 min (average of two runs). ^1H-NMR (90 MHz, DMSO-d6) δ ppm: 8.74 (s, 1H), 8.38 (s, 1H), 7.89-7.31 (m, 8H), and 4.394.30 (m, 5H). ESI-MS (m/z): 448.2 [M +H]+, (calculated monoisotopic mass 448.10), 470.2 [M+Na]^+, 486.2 [M+K]^+.

Vibrio anguillarum = assay: growth of Vibrio anguillarum cultures (OD650) after incubation with peptide; format: cell-based; details: for effect on the growth of V. anguillarum cultures: result in words; for OD650 of V. anguillarum cultures: 28°; for killing of the bacteria: OD of the cultures still increased at different incubation times
Protocol: The marin bacterium Vibrio anguillarum, a fish pathogen causing the disease “vibriosis” in marine fish and shellfish were used in this experiment.
Bacteria (V. anguillarum) were grown overnight at 28° C. in Luria-Bertani (LB) 20 medium (the concentration of NaCl is 20 g/L for marine bacteria in LB medium, instead of the usual 10 g/L). The culture was re-inoculated and incubated in LB20 medium at 28° C. (ca. 2hr) to reach the exponential growth phase of the bacteria. The bacterial suspension was then dilute with 0.1×LB20 medium to make the bacterial dilution containing 2×10^3 colony-forming units (cfm)/ml.
At time zero, the bacteria were treated with the peptide in 0.1×LB20 medium. After incubation for 3 hours, 1×LB20 medium was added to the culture, and incubated for 20 hours.

[2] = 31.2 μM peptide, 9 hr incubation
[3] = 31.2 μM peptide, 20 hr incubation
[4] = 62.5 μM peptide, 9 hr incubation
[5] = 62.5 μM peptide, 20 hr incubation
[6] = 125 μM peptide, 9 hr incubation
[7] = 125 μM peptide, 20 hr incubation
[8] = 250 μM peptide, 9 hr incubation
[9] = 250 μM peptide, 20 hr incubation
[10] = 500 μM peptide, 9 hr incubation
[11] = 500 μM peptide, 20 hr incubation

2-(2′-Fmoc-aminomethyl-oxazole-4′-yl)-thiazole-4-carboxylic acid [Compound 3]
Ka(1), stoichiometric equilibrium binding constant near saturation (DNA): 20000 M⁻¹

2-(Fmoc-aminomethyl)-oxazole-4-carboxylic acid [Compound 2]
Ka(1), stoichiometric equilibrium binding constant near saturation (DNA): 24000 M⁻¹

2-(Fmoc-aminomethyl)-thiazole-4-carboxylic acid [Compound 1]
Ka(1), stoichiometric equilibrium binding constant near saturation (DNA): 25000 M⁻¹

O=C(NCc1nc(-c2nc(C(=O)O)cs2)co1)OCC1c2ccccc2-c2ccccc21 [Compound 3, 2-(2′-Fmoc-aminomethyl-oxazole-4′-yl)-thiazole-4-carboxylic acid]
solubility ([1]; in DCM, ethyl ether, EtOAc, THF, methanol, ethanol, acetonitrile, HFIP, DMF, NMP or water): did not dissolve
solubility ([1]; in DCM, ethyl ether, EtOAc, THF, methanol, ethanol, acetonitrile, HFIP, DMF, NMP or water, listed as Compound (3)): insoluble
solubility ([1]; in DMSO, or solutions containing at least 50% DMSO in DMF or NMP): could only dissolve
solubility ([1]; in DMSO, or solutions containing at least 50% DMSO in DMF or NMP, listed as Compound (3)): soluble

CC(=O)NCc1nc(-c2nc(C(=O)NCC(=O)NCc3nc(C(=O)NCCCN)cs3)cs2)co1 [Compound L2-3]
effect on the growth of V. anguillarum cultures (Vibrio anguillarum): did not have a detectable effect

CC(=O)NCc1nc(-c2nc(C(=O)NCC(=O)NCc3nc(C(=O)NCCCN)co3)cs2)co1 [Compound L2-6]
OD650 of V. anguillarum cultures (Vibrio anguillarum; [2]): 0.137
OD650 of V. anguillarum cultures (Vibrio anguillarum; [3]): 0.395
OD650 of V. anguillarum cultures (Vibrio anguillarum; [4]): 0.130
OD650 of V. anguillarum cultures (Vibrio anguillarum; [5]): 0.391
OD650 of V. anguillarum cultures (Vibrio anguillarum; [6]): 0.120
OD650 of V. anguillarum cultures (Vibrio anguillarum; [7]): 0.402
OD650 of V. anguillarum cultures (Vibrio anguillarum; [8]): 0.113
OD650 of V. anguillarum cultures (Vibrio anguillarum; [9]): 0.427
OD650 of V. anguillarum cultures (Vibrio anguillarum; [10]): 0.073
OD650 of V. anguillarum cultures (Vibrio anguillarum; [11]): 0.388
killing of the bacteria (Vibrio anguillarum): did not kill the bacteria
effect on the growth of V. anguillarum cultures (Vibrio anguillarum): inhibited the growth

CC(=O)NCc1nc(-c2nc(C(=O)NCC(=O)NCc3nc(-c4nc(C(=O)NCCCN)cs4)co3)cs2)co1 [Compound L2-9]
OD650 of V. anguillarum cultures (Vibrio anguillarum; [2]): 0.135
OD650 of V. anguillarum cultures (Vibrio anguillarum; [3]): 0.417
OD650 of V. anguillarum cultures (Vibrio anguillarum; [4]): 0.135
OD650 of V. anguillarum cultures (Vibrio anguillarum; [5]): 0.421
OD650 of V. anguillarum cultures (Vibrio anguillarum; [6]): 0.131
OD650 of V. anguillarum cultures (Vibrio anguillarum; [7]): 0.425
OD650 of V. anguillarum cultures (Vibrio anguillarum; [8]): 0.125
OD650 of V. anguillarum cultures (Vibrio anguillarum; [9]): 0.409
OD650 of V. anguillarum cultures (Vibrio anguillarum; [10]): 0.075
OD650 of V. anguillarum cultures (Vibrio anguillarum; [11]): 0.354
killing of the bacteria (Vibrio anguillarum): did not kill the bacteria
effect on the growth of V. anguillarum cultures (Vibrio anguillarum): inhibited the growth

Microcin B17 fragment 13-23 [Compound 39]
OD650 of V. anguillarum cultures (Vibrio anguillarum; [2]): 0.111
OD650 of V. anguillarum cultures (Vibrio anguillarum; [3]): 0.419
OD650 of V. anguillarum cultures (Vibrio anguillarum; [4]): 0.082
OD650 of V. anguillarum cultures (Vibrio anguillarum; [5]): 0.297
OD650 of V. anguillarum cultures (Vibrio anguillarum; [6]): 0.051
OD650 of V. anguillarum cultures (Vibrio anguillarum; [7]): 0.279
OD650 of V. anguillarum cultures (Vibrio anguillarum; [8]): 0.034
OD650 of V. anguillarum cultures (Vibrio anguillarum; [9]): 0.241
OD650 of V. anguillarum cultures (Vibrio anguillarum; [10]): 0.034
OD650 of V. anguillarum cultures (Vibrio anguillarum; [11]): 0.244
killing of the bacteria (Vibrio anguillarum): did not kill the bacteria
effect on the growth of V. anguillarum cultures (Vibrio anguillarum): inhibited the growth

tachyplesin [reference compound]
OD650 of V. anguillarum cultures (Vibrio anguillarum; 6.25 μg/ml peptide, 9 hr incubation): 0.068
OD650 of V. anguillarum cultures (Vibrio anguillarum; 6.25 μg/ml peptide, 20 hr incubation): 0.036
OD650 of V. anguillarum cultures (Vibrio anguillarum; 12.5 μg/ml peptide, 9 hr incubation): 0.035
OD650 of V. anguillarum cultures (Vibrio anguillarum; 12.5 μg/ml peptide, 20 hr incubation): 0.035
OD650 of V. anguillarum cultures (Vibrio anguillarum; 25 μg/ml peptide, 9 hr incubation): 0.035
OD650 of V. anguillarum cultures (Vibrio anguillarum; 25 μg/ml peptide, 20 hr incubation): 0.035
OD650 of V. anguillarum cultures (Vibrio anguillarum; 50 μg/ml peptide, 9 hr incubation): 0.039
OD650 of V. anguillarum cultures (Vibrio anguillarum; 50 μg/ml peptide, 20 hr incubation): 0.038
OD650 of V. anguillarum cultures (Vibrio anguillarum; Dilution 5 (31.2 μg/ml) peptide, 9 hr incubation): 0.098
OD650 of V. anguillarum cultures (Vibrio anguillarum; Dilution 5 (31.2 μg/ml) peptide, 20 hr incubation): 0.034
